Laboratory results taken from patent US4224325A, “3-(1-Pyrazolyl)-pyridazine derivatives and hypotensive compositions thereof” (Richter Gedeon Vegyeszeti Gyar Rt., priority 1977, dated 1980).
Where two headings read alike, the source gives them in different places.

Tests used:
[1] = biological target: T1, prostaglandin dehydrogenase (PGDH) (Sus scrofa, UniProt A0ACM8QJV0); assay: Prostaglandin dehydrogenase (PGDH) inhibiting action, method of Marrazzi and Matschinsky, PGDH preparation from pig lung; type: biochemical
T1 construct: on a PGDH preparation from pig lung; from tissue; host or cells: pig lung
T1 sequence (A0ACM8QJV0 1-266): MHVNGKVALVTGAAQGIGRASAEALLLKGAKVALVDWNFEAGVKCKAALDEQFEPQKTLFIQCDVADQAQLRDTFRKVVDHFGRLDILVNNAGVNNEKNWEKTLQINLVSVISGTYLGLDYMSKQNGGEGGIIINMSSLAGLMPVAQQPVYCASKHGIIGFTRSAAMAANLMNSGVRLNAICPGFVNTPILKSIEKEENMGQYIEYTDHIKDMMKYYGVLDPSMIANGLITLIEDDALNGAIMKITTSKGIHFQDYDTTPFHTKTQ
Excerpt: (§1) The I50%, i.e. the index of inhibition, is defined as the concentration of the substance inhibiting to 50% the function of the corresponding enzyme.

[2] = biological target: prostaglandin-A isomerase (PGAI); assay: Prostaglandin-A isomerase (PGAI) inhibiting action, method of Jones et al., PGAI preparation from blood plasma of pigs; type: biochemical; settings: concentration inhibiting enzyme function to 50%; PGAI from pig blood plasma; read-out: I50% inhibiting level in final concentration, PGAI
Excerpt: as §1

[3] = system: spontaneously hypertensive (Wistar-Okamoto) rats; assay: Hypotensive action in spontaneously hypertensive rats, systolic blood pressure in caudal artery by indirect method after oral treatment; type: in vivo; settings: dose equal to Hydralazine
Description: The hypotensive action of substance 44 was studied also in spontaneously hypertensive (Wistar-Okamoto(rats)Arzneim.- forsch. 6, 222, 1956): the systolic blood pressure was measured in the caudal artery by an indirect method, after oral treatment.

[4] = Tachycardia (inability to cause, compared with Hydralazine); type: in vivo; settings: against Hydralazine
in vivo = settings: mouse, po
[5] = system: prostaglandin dehydrogenase and prostaglandin-A isomerase; assay: Inhibition of enzymes regulating prostaglandin catabolism (prostaglandin dehydrogenase and prostaglandin-A isomerase), in words; type: biochemical
Description: The prostaglandin-A isomerase (PGAI) inhibiting action of the compounds according to the invention was measured by the method of Jones et al. (Biochim. Biophys. Acta 280, 558, 1972) on a PGAI preparation from the blood plasma of pigs, whereas the prostaglandin dehydrogenase (PGDH) inhibiting action was determined by the method of Marrazzi and Matschinsky (Prostaglandins 1, 373, 1972); on a PGDH preparation from pig lung.

cats = assay: Hypotensive action in narcotized cats (decrease in blood pressure); type: in vivo; settings: cats narcotized i.p. by 30 mg/kg Pentobarbital
mice = settings: against Hydralazine
[6] = concentration inhibiting enzyme function to 50%, PGDH from pig lung, read-out: I50% inhibiting level in final concentration, PGDH

SMILES | IC50 [2] [µM] | LD50 (in vivo) [mg/kg] | Decrease in blood pressure by 1 mg/kg (cats) [Hgmm] | also measured
C[C@]12CC[C@@H]3c4ccc(O)cc4CC[C@H]3[C@@H]1CCC2=O [Estrone, reference compound] | – | – | – | IC50 [1]: 10 µM
Cc1cc(C)n(-c2ccc(NCc3ccccc3)nn2)n1 [Example 17, 3-Benzylamino-6-(3,5-dimethyl-1-pyrazolyl)-pyridazine] | – | – | – | IC50 [1, 6]: 200 µM
Cc1cc(C)n(-c2ccc(N(C)C)nn2)n1 [Example 19, 3-Dimethylamino-6-(3,5-dimethyl-1-pyrizolyl)-pyridazine] | 130 | – | – | –
Cc1nn(-c2ccc(NN)nn2)c(C)c1N [Example 44, 3-hydrazino-6-(3,5-dimethyl-4-amino-1-pyrazolyl)-pyridazine] | 70 | > 200 | -40 | Duration of effect compared with Hydralazine at equal dose [3]: same duration of effect; Effectivity (systolic blood pressure) compared with Hydralazine at equal dose [3]: same effectivity; Tachycardia [4]: inability to cause tachycardia; Prostaglandin catabolism inhibiting effect [5]: prostaglandin catabolism inhibiting effect; Toxicity compared with Hydralazine (mice): extraordinarily favorable toxicity
Cc1nn(-c2ccc(NNC(=O)OC(C)(C)C)nn2)c(C)c1N [Example 56, 3-(2-tert-butoxycarbonyl-1-hydrazino)-6-(3,5-dimethyl-4-amino-1-pyrazolyl)-pyridazine] | – | 200 | -35 | –
NNc1ccc(-n2nc(C3CC3)cc2C2CC2)nn1 [Example 26, 3-Hydrazino-6-(3,5-dicyclopropyl-1-pyrazolyl)-pyridazine] | – | 100 | -40 | –
c1ccc(CNc2ccc(-n3nc(-c4ccccc4)cc3-c3ccccc3)nn2)cc1 [Example 21, 3-Benzylamino-6-(3,5-diphenyl-1-pyrazolyl)-pyridazine] | 20 | – | – | –
NNc1ccc(-n2cc(N)cn2)nn1 [Example 45, 3-Hydrazino-6-(4-amino-1-pyrazolyl)-pyridazine] | – | 200 | -30 | –
CCc1cc(CC)n(-c2ccc(NN)nn2)n1 [Example 29, 3-Hydrazino-6-(3,5-diethyl-1-pyrazolyl)-pridazine] | – | ~150 | -40 | –
CCc1nn(-c2ccc(NN)nn2)c(CC)c1N [Example 46, 3-Hydrazino-6-(3,5-diethyl-4-amino-1-pyrazolyl)-pyridazine] | – | 200 | -50 | –
Cc1cc(C)n(-c2ccc(NN)nn2)n1 [Example 25, 3-hydrazino-6-(3,5-dimethyl-1-pyrazolyl)-pyridazine] | 25 | 200 | -30 | –
Cc1nn(-c2ccc(NN)nn2)c(C)c1Br [Example 35, 3-Hydrazini-6-(3,5-dimethyl-4-bromo-1-pyrazolyl)-pyridazine] | 80 | – | – | –
Cc1nn(-c2ccc(NN)nn2)c(C)c1C [Example 31, 3-Hydrazino-6-(3,4,5-trimethyl-1-pyrazolyl)-pridazine] | 60 | 100 | -15 | –
NNc1ccc(-n2nccc2N)nn1 [Example 40, 3-Hydrazino-6-(5-amino-1-pyrazolyl)-pyridazine] | – | 200 | -30 | –
Cc1nn(-c2ccc(NN)nn2)c(C)c1Cl [Example 34, 3-Hydrazino-6-(3,5-dimethyl-4-chloro-1-pyrazolyl)-pyridazine] | – | > 200 | -20 | IC50 [1, 6]: 110 µM
Cl.NNc1nncc2ccccc12 [Hydralazine, 1-hydrazinophthalazine hydrochloride, reference compound] | 90 | 200 | -40 | –
